Source: PubChem BioAssay AID2060349 (Molecular Pharmacology Branch, DTP, NCI, 2025)
pIC50: −log10 of the molar value.

System: 762968-020-R-J2-PDC spheroids viability
Assay: Anticancer human tumor 762968-020-R-J2-PDC patient-derived colon carcinoma cell line growth inhibition [TAK]
Conditions: spheroids with HUVEC and MSC; for pIC50: curve of first compound; for viability, T/C: stronger effect = lower value
Summary of the method: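 Spheroids of 60% malignant cells, 25% HUVEC and 15% hMSC were exposed to targeted agents combined with TAK-243 or ipatasertib. Concentrations started at or near clinical Cmax (10 microM if unknown) and descended in half-log steps.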

[1] = second compound 0.3 µM, first compound 0.316 µM
[2] = second compound 0.3 µM, first compound 1 µM
[3] = second compound 0.3 µM, first compound 3.16 µM
[4] = second compound 0.3 µM, first compound 10 µM
[5] = second compound 0.949 µM, first compound 0.316 µM
[6] = second compound 0.949 µM, first compound 1 µM
[7] = second compound 0.949 µM, first compound 3.16 µM
[8] = second compound 0.949 µM, first compound 10 µM
[9] = second compound 3 µM, first compound 0.316 µM
[10] = second compound 3 µM, first compound 1 µM
[11] = second compound 3 µM, first compound 3.16 µM
[12] = second compound 3 µM, first compound 10 µM
[13] = second compound 9.49 µM, first compound 0.316 µM
[14] = second compound 9.49 µM, first compound 1 µM
[15] = second compound 9.49 µM, first compound 3.16 µM
[16] = second compound 9.49 µM, first compound 10 µM
[17] = second compound 30 µM, first compound 0.316 µM
[18] = second compound 30 µM, first compound 1 µM
[19] = second compound 30 µM, first compound 3.16 µM
[20] = second compound 30 µM, first compound 10 µM
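Further: spheroids exposed to drug for 7 days before readout.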
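Wherever viability, T/C is given: 100% = DMSO vehicle control wells.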

`CC(C)(C)c1nc(-c2cccc(NS(=O)(=O)c3c(F)cccc3F)c2F)c(-c2ccnc(N)n2)s1` + CC(C)NCC(C(=O)N1CCN(c2ncnc3c2C(C)CC3O)CC1)c1ccc(Cl)cc1 gave a pIC50 (second compound 0.3 µM) of less than 5.00, a pIC50 (second compound 0.949 µM) of less than 5.00 and a pIC50 (second compound 3 µM) of less than 5.00. The pIC50 (second compound 9.49 µM) was less than 5.00, the pIC50 (second compound 30 µM) was less than 5.00 and the viability, T/C (second compound 0.3 µM, first compound 0.0316 µM) was 92.8%. It also gave a viability, T/C (second compound 0.3 µM, first compound 0.1 µM) of 91.4%, a viability, T/C [1] of 84.8% and a viability, T/C [2] of 84.3%. For the same compound, the viability, T/C [3] was 92.4%, the viability, T/C [4] was 94.7% and the viability, T/C (second compound 0.949 µM, first compound 0.0316 µM) was 93.9%. The viability, T/C (second compound 0.949 µM, first compound 0.1 µM) was 90.2%, the viability, T/C [5] was 84.6% and the viability, T/C [6] was 86%. For the same compound, the viability, T/C [7] was 88.4%, the viability, T/C [8] was 92.8% and the viability, T/C (second compound 3 µM, first compound 0.0316 µM) was 95.6%. It also gave a viability, T/C (second compound 3 µM, first compound 0.1 µM) of 87.1%, a viability, T/C [9] of 94.8% and a viability, T/C [10] of 85.9%. The viability, T/C [11] was 92%, the viability, T/C [12] was 95% and the viability, T/C (second compound 9.49 µM, first compound 0.0316 µM) was 92.5%. The viability, T/C (second compound 9.49 µM, first compound 0.1 µM) was 86.4%, the viability, T/C [13] was 83.9% and the viability, T/C [14] was 79.9%. It also gave a viability, T/C [15] of 72%, a viability, T/C [16] of 92.5% and a viability, T/C (second compound 30 µM, first compound 0.0316 µM) of 81.4%. For the same compound, the viability, T/C (second compound 30 µM, first compound 0.1 µM) was 80.5%, the viability, T/C [17] was 81.6% and the viability, T/C [18] was 74.1%. For the same compound, the viability, T/C [19] was 74.5% and the viability, T/C [20] was 93.5%.

Compound `CCCS(=O)(=O)Nc1ccc(F)c(C(=O)c2c[nH]c3ncc(-c4ccc(Cl)cc4)cc23)c1F` + CC(C)NCC(C(=O)N1CCN(c2ncnc3c2C(C)CC3O)CC1)c1ccc(Cl)cc1 has a pIC50 (second compound 0.3 µM) of less than 4.00, a pIC50 (second compound 0.949 µM) of 4.63 and a pIC50 (second compound 3 µM) of less than 4.00. For the same compound, the pIC50 (second compound 9.49 µM) was less than 4.00, the pIC50 (second compound 30 µM) was 4.75 and the viability, T/C [1] was 94.5%. For the same compound, the viability, T/C [2] was 95.2%, the viability, T/C [3] was 94.4% and the viability, T/C [4] was 72.3%. The viability, T/C (second compound 0.3 µM, first compound 31.6 µM) was 13.6%, the viability, T/C (second compound 0.3 µM, first compound 100 µM) was 97.5% and the viability, T/C [5] was 89.9%. For the same compound, the viability, T/C [6] was 93.2%, the viability, T/C [7] was 94.6% and the viability, T/C [8] was 57.5%. For the same compound, the viability, T/C (second compound 0.949 µM, first compound 31.6 µM) was 1.16%, the viability, T/C (second compound 0.949 µM, first compound 100 µM) was 93.7% and the viability, T/C [9] was 97.6%. For the same compound, the viability, T/C [10] was 93.3%, the viability, T/C [11] was 101% and the viability, T/C [12] was 71.3%. It also gave a viability, T/C (second compound 3 µM, first compound 31.6 µM) of 0.49%, a viability, T/C (second compound 3 µM, first compound 100 µM) of 97.8% and a viability, T/C [13] of 91.9%. It also gave a viability, T/C [14] of 94.1%, a viability, T/C [15] of 89.1% and a viability, T/C [16] of 70.2%. It also gave a viability, T/C (second compound 9.49 µM, first compound 31.6 µM) of 18.5%, a viability, T/C (second compound 9.49 µM, first compound 100 µM) of 105% and a viability, T/C [17] of 77.2%. For the same compound, the viability, T/C [18] was 90.9%, the viability, T/C [19] was 87.4% and the viability, T/C [20] was 53.6%. It also gave a viability, T/C (second compound 30 µM, first compound 31.6 µM) of 2.13% and a viability, T/C (second compound 30 µM, first compound 100 µM) of 90.7%.
